Measurements reported in ChEMBL document CHEMBL1130513, “New hepatoprotective saponins, bupleurosides III, VI, IX, and XIII, from Chinese Bupleuri Radix: Structure-requirements for the cytoprotective activity in primary cultured rat hepatocytes” (1997).

Tests used:
Format in all cases: functional
Settings in all cases: Hepatocyte
Rattus norvegicus [1] = species on record: Rattus norvegicus; assay: In vitro inhibitory effect on D-Galactosamine induced cytotoxicity in primary cultured rat hepatocytes at 30 ug/mL
Rattus norvegicus [2] = species on record: Rattus norvegicus; assay: In vitro inhibitory effect on D-Galactosamine induced cytotoxicity in primary cultured rat hepatocytes at 1 ug/mL
Rattus norvegicus [3] = species on record: Rattus norvegicus; assay: In vitro inhibitory effect on D-Galactosamine induced cytotoxicity in primary cultured rat hepatocytes at 10 ug/mL
Rattus norvegicus [4] = species on record: Rattus norvegicus; assay: In vitro inhibitory effect on D-Galactosamine induced cytotoxicity in primary cultured rat hepatocytes at 3 ug/mL
Rattus norvegicus [5] = species on record: Rattus norvegicus; assay: In vitro inhibitory effect on D-Galactosamine induced cytotoxicity in primary cultured rat hepatocytes at 0.3 ug/mL

Row | SMILES | inhibition at 30 µg/mL (Rattus norvegicus [1]) [%] | inhibition at 1 µg/mL (Rattus norvegicus [2]) [%] | inhibition at 10 µg/mL (Rattus norvegicus [3]) [%] | inhibition at 3 µg/mL (Rattus norvegicus [4]) [%] | inhibition at 0.3 µg/mL (Rattus norvegicus [5]) [%]
1 | CO[C@@H]1C=C2C3CC(C)(C)CC[C@]3(CO)[C@@H](O)C[C@@]2(C)[C@]2(C)CCC3C(C)(C)[C@@H](O[C@@H]4O[C@H](C)[C@H](O)[C@H](O[C@@H]5O[C@H](CO)[C@@H](O)[C@H](O)[C@H]5O)[C@H]4O)CC[C@]3(C)C12 (stereo not given in full) | 75 | 64.9 | 73.3 | 75.5 | 37.2
2 | CC1(C)CC[C@@]2(CO)C(C1)C1=CC(=O)C3[C@@]4(C)CC[C@H](O)[C@@](C)(CO)C4CC[C@@]3(C)[C@]1(C)C[C@@H]2O (stereo not given in full) | 4.9 | 0.6 | 0.4 | 0 | 0.6
3 | C[C@@H]1O[C@@H](O[C@@H]2[C@H](O)[C@@H](O)[C@H](OC3CC[C@@]4(C)C(CC[C@]5(C)[C@@H]4CC=C4C6CC(C)(C)CC[C@]6(CO)[C@@H](O)C[C@]45C)C3(C)C)O[C@@H]2CO[C@@H]2O[C@H](CO)[C@@H](O)[C@H](O)[C@H]2O)[C@H](O)[C@H](O)[C@H]1O (stereo not given in full) | -0.7 | 0.2 | -2.9 | -2.9 | 3.1
4 | C[C@@H]1O[C@@H](O[C@@H]2[C@H](O)[C@@H](O)[C@H](O[C@H]3CC[C@@]4(C)C(CC[C@]5(C)C4C=C[C@]46OC[C@@]7(CCC(C)(C)CC74)[C@@H](O)C[C@]65C)C3(C)C)O[C@@H]2CO[C@@H]2O[C@H](CO)[C@@H](O)[C@H](O)[C@H]2O)[C@H](O)[C@H](O)[C@H]1O (stereo not given in full) [SAIKOSAPONIN C] | -1 | -0.7 | -1 | -1.9 | -1.5
5 | C[C@@H]1O[C@@H](O[C@H]2[C@@H](O)[C@@H](CO[C@@H]3O[C@H](CO)[C@@H](O)[C@H](O)[C@H]3O)O[C@@H](OC3CC[C@@]4(C)C(CC[C@]5(C)C4C=CC4=C6CC(C)(C)CC[C@]6(CO)[C@H](O)C[C@]45C)[C@]3(C)CO)[C@@H]2O)[C@H](O)[C@H](O)[C@H]1O (stereo not given in full) [BUPLEUROSIDE X] | 2.7 | 3.9 | 3.4 | 4.6 | 2.9
6 | C[C@H]1O[C@@H](OC2CC[C@@]3(C)C(CC[C@]4(C)C3C=CC3=C5CC(C)(C)CC[C@]5(CO)[C@@H](O)C[C@]34C)[C@]2(C)CO)[C@H](O)[C@@H](O[C@@H]2O[C@H](CO)[C@@H](O)[C@H](O)[C@H]2O)[C@H]1O (stereo not given in full) | -5.1 | -1.4 | 8.7 | 4.3 | 0.1
7 | CC1(C)CC[C@]2(C(=O)O)CC[C@]3(C)C(=CCC4[C@@]5(C)CC[C@H](O[C@@H]6O[C@H](CO)[C@H](O)[C@H](O[C@@H]7OC[C@@H](O)[C@@H](O)[C@@H]7O[C@@H]7O[C@H](CO)[C@@H](O)[C@H](O)[C@H]7O)[C@H]6O)C(C)(C)C5CC[C@]43C)C2C1 (stereo not given in full) [BUPLEUROSIDE VII1] | -1.4 | 0.1 | -1.4 | -0.9 | 1.5
8 | C[C@H]1O[C@@H](OC2CC[C@@]3(C)C(CC[C@]4(C)C3C=CC3=C5C[C@](C)(C(=O)O)CC[C@]5(CO)[C@H](O)C[C@]34C)[C@]2(C)CO)[C@H](O)[C@@H](O[C@@H]2O[C@H](CO)[C@@H](O)[C@H](O)[C@H]2O)[C@H]1O (stereo not given in full) [BUPLEUROSIDE V] | 4.5 | 1.5 | 3.8 | 1.4 | 1.4
9 | CO[C@@H]1C=C2C3CC(C)(C)CC[C@]3(CO)[C@@H](O)C[C@@]2(C)[C@]2(C)CCC3[C@](C)(CCC(O[C@@H]4O[C@H](C)[C@H](O)[C@H](O[C@@H]5O[C@H](CO)[C@@H](O)[C@H](O)[C@H]5O)[C@H]4O)[C@@]3(C)CO)C12 (stereo not given in full) | 72.1 | 13.9 | 70.4 | 56.4 | 8.7
10 | CO[C@@H]1C=C2C3CC(C)(C)CC[C@]3(CO)[C@H](O)C[C@@]2(C)[C@]2(C)CCC3[C@](C)(CC[C@H](O[C@@H]4O[C@H](C)[C@H](O)[C@H](O[C@@H]5O[C@H](CO)[C@@H](O)[C@H](O)[C@H]5O[C@@H]5O[C@H](CO)[C@@H](O)[C@H](O)[C@H]5O)[C@H]4O)[C@@]3(C)CO)C12 (stereo not given in full) | -2.9 | 0.3 | -2.2 | -0.4 | 1.7
11 | C[C@@H]1O[C@@H](O[C@@H]2[C@H](O)[C@@H](O)[C@H](O[C@H]3CC[C@@]4(C)C(CC[C@]5(C)C4CC=C4C6CC(C)(C)CC[C@]6(CO)CC[C@]45C)C3(C)C)O[C@@H]2CO[C@@H]2O[C@H](CO)[C@@H](O)[C@H](O)[C@H]2O)[C@H](O)[C@H](O)[C@H]1O (stereo not given in full) [BUPLEUROSIDE XI] | -0.3 | 1.6 | 0.3 | -1 | -0.4
